PMC6256351, “Stereoselective Synthesis of the Isomers of Notoincisol A: Assigment of the Absolute Configuration of this Natural Product and Biological Evaluation” (Journal of Natural Products, 2018)

Biological target: T1, PPARγ (peroxisome proliferator-activated receptor gamma) (Homo sapiens, UniProt P37231)
T1 construct: gene PPARG; full-length human PPARγ
T1 sequence (P37231 1-505): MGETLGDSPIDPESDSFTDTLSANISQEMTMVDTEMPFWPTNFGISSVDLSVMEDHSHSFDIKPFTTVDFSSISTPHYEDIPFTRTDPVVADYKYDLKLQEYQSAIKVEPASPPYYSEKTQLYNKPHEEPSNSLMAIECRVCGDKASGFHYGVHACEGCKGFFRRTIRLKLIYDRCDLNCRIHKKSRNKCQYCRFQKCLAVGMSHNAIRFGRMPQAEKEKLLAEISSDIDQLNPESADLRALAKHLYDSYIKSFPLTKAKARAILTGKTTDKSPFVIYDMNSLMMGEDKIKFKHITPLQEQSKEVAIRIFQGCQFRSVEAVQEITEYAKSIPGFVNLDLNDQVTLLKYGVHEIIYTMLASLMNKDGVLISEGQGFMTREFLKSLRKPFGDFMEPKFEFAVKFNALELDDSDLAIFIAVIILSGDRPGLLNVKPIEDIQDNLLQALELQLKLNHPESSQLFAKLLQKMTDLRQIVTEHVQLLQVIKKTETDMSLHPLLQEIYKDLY
Test: luciferase reporter gene transactivation in HEK293 cells transfected with PPARγ
Format: cell-based

C=C[C@@H](O)C#CC#C[C@H](/C=C\CCCCCCC)OC(=O)/C=C/c1ccc(O)c(OC)c1 [3R,8S-1, (3R,8S)-Notoincisol A]
EC50: 1.2 µM
